# Measurements from patent publication US5892063A (Hauser, Inc., priority 1997, dated 1999).
# pIC50: −log10 of the molar value. Read-outs that look alike come from different tables or passages of the source.
# Tests used:
# OVCAR-4 = test: SRB growth screen, ovarian cancer OVCAR-4; details: Homo sapiens, OVCAR-4, 48 h
# A498 = test: SRB growth screen, renal cancer A498; details: Homo sapiens, A498, 48 h
# MOLT-4 = test: SRB growth screen, leukemia MOLT-4; details: Homo sapiens, MOLT-4, 48 h
# NCI-H522 = details: Homo sapiens, NCI-H522, 48 h
# OVCAR-5 = test: SRB growth screen, ovarian cancer OVCAR-5; details: Homo sapiens, OVCAR-5, 48 h
# T-47D = test: SRB growth screen, breast cancer T-47D; details: Homo sapiens, T47D, 48 h
# SNB-75 = test: SRB growth screen, CNS cancer SNB-75; details: Homo sapiens, SNB-75, 48 h
# UACC-257 = test: SRB growth screen, melanoma UACC-257; details: Homo sapiens, UACC-257, 48 h
# UO-31 = test: SRB growth screen, renal cancer UO-31; details: Homo sapiens, UO-31, 48 h
# RPMI-8226 = test: SRB growth screen, leukemia RPMI-8226; details: Homo sapiens, RPMI-8226, 48 h, read-out: Log10 LC50 (converted)
# HCT-15 = test: SRB growth screen, colon cancer HCT-15; details: Homo sapiens, HCT-15, 48 h
# SNB-19 = test: SRB growth screen, CNS cancer SNB-19; details: Homo sapiens, SNB-19, 48 h
# MDA-MB-231/ATCC = test: SRB growth screen, breast cancer MDA-MB-231/ATCC; details: Homo sapiens, MDA-MB-231, 48 h
# 786-0 = test: SRB growth screen, renal cancer 786-0; details: Homo sapiens, 786-0, 48 h
# SW-620 = test: SRB growth screen, colon cancer SW-620; details: Homo sapiens, SW-620, 48 h
# [1] = SRB growth screen, whole cell line panel; assay type: cell-based
# Protocol: The screening assay is performed on 96-well microtitre plates. […] Duplicate wells are prepared for all concentrations; "time-zero" and "nodrug" controls are also provided for each test. […] One hundred microliters of SRB solution (0.4% w/v in 1% acetic acid) is added to each microtitre well and incubated for 10 minutes at room temperature.
# The response parameters GI50 and LC50 are interpolated values representing the concentrations at which the percentage growth (PG) is +50 and -50 respectively:
# GI50 is the concentration for which the PG=+50.
# TGI is the concentration for which PG=0.
# LC50 is the concentration for which the PG=-50. […] This is interpreted as cytotoxicity.
# The data represented in Table I is graphically represented in FIGS. 1a and 1b through FIGS. 9a and 9b. […] The following is an example of how the information in Table I and in the Figures is interpreted.
# OVCAR-3 = test: SRB growth screen, ovarian cancer OVCAR-3; details: Homo sapiens, OVCAR-3, 48 h
# CCRF-CEM = test: SRB growth screen, leukemia CCRF-CEM; details: Homo sapiens
# KM12 = test: SRB growth screen, colon cancer KM12; details: Homo sapiens, KM12, 48 h, read-out: Log10 GI50 (converted)
# OVCAR-8 = test: SRB growth screen, ovarian cancer OVCAR-8; details: Homo sapiens, OVCAR-8, 48 h
# TK-10 = test: SRB growth screen, renal cancer TK-10; details: Homo sapiens, TK-10, 48 h
# [2] = read-out: Log10 GI50 (converted)
# [3] = read-out: Log10 LC50 (converted)
smiles,measurement,setting,value
"CC(=O)O[C@H]1C(=O)[C@@]2(C)[C@H]([C@H](OC(=O)c3ccccc3)[C@]3(O)C[C@H](OC(=O)[C@H](O)[C@@H](NC(=O)C4(C)OC4C)c4ccccc4)C(C)=C1C3(C)C)[C@]1(OC(C)=O)CO[C@@H]1C[C@@H]2O (some centres unmarked) [Ceph-epoxide, cephalomannine epoxide]",GI50,OVCAR-4; [2],3.89 µM
same,CC50,OVCAR-4; [3],> 100 µM
same,IC (TGI),OVCAR-4; read-out: Log10 TGI,> 100 µM
same,GI50,A498; [2],0.316 µM
same,CC50,A498; [3],> 100 µM
same,IC (TGI),A498; read-out: Log10 TGI,> 100 µM
same,GI50,MOLT-4; [2],< 0.01 µM
same,CC50,MOLT-4; [3],> 100 µM
same,IC (TGI),MOLT-4; read-out: Log10 TGI,> 100 µM
same,GI50,NCI-H522; [2],< 0.01 µM
same,IC (TGI),NCI-H522; read-out: Log10 TGI,0.0331 µM
same,GI50,OVCAR-5; [2],0.0275 µM
same,CC50,OVCAR-5; [3],> 100 µM
same,IC (TGI),OVCAR-5; read-out: Log10 TGI,4.79 µM
same,GI50,T-47D; [2],15.5 µM
same,CC50,T-47D; [3],> 100 µM
same,IC (TGI),T-47D; read-out: Log10 TGI,> 100 µM
same,GI50,SNB-75; [2],< 0.01 µM
same,CC50,SNB-75; [3],> 100 µM
same,GI50,UACC-257; [2],0.0209 µM
same,CC50,UACC-257; [3],> 100 µM
same,IC (TGI),UACC-257; read-out: Log10 TGI,> 100 µM
same,GI50,UO-31; [2],2 µM
same,CC50,UO-31; [3],> 100 µM
same,IC (TGI),UO-31; read-out: Log10 TGI,> 100 µM
same,CC50,RPMI-8226,> 100 µM
same,GI50,HCT-15; [2],0.603 µM
same,CC50,HCT-15; [3],> 100 µM
same,IC (TGI),HCT-15; read-out: Log10 TGI,> 100 µM
same,GI50,SNB-19; [2],0.0257 µM
same,CC50,SNB-19; [3],> 100 µM
same,IC (TGI),SNB-19; read-out: Log10 TGI,> 100 µM
same,GI50,MDA-MB-231/ATCC; [2],0.0182 µM
same,CC50,MDA-MB-231/ATCC; [3],> 100 µM
same,CC50,786-0; [3],> 100 µM
same,IC (TGI),786-0; read-out: Log10 TGI,> 100 µM
same,CC50,SW-620; [3],> 100 µM
same,IC (TGI),SW-620; read-out: Log10 TGI,> 100 µM
same,CC50,"[1]; Homo sapiens, read-out: Log10 LC50, Mean (converted)",64.6 µM
same,GI50,"[1]; mean over cell lines, read-out: Log10 GI50, Mean (converted)",0.0288 µM
same,IC (TGI),"[1]; mean over cell lines, read-out: Log10 TGI, Mean (converted)",5.75 µM
same,GI50,OVCAR-3; [2],< 0.01 µM
same,CC50,OVCAR-3; [3],> 100 µM
same,IC (TGI),OVCAR-3; read-out: Log10 TGI,0.0182 µM
same,GI50,"CCRF-CEM; 48 h, read-out: Log10 GI50 (converted)",< 0.01 µM
same,CC50,"CCRF-CEM; 48 h, read-out: Log10 LC50 (converted)",> 100 µM
same,IC (TGI),"CCRF-CEM; 48 h, read-out: Log10 TGI",2.51 µM
same,IC (TGI),CCRF-CEM; read-out: concentration considered cytostasis (percentage growth 0),2.51 µM
same,pIC50,CCRF-CEM; read-out: concentration necessary to achieve primary growth inhibition (PG +50),> 8.00
same,CC50,CCRF-CEM; read-out: cytotoxicity concentration (percentage growth -50),> 100 µM
same,GI50,KM12,< 0.01 µM
same,CC50,OVCAR-8; [3],> 100 µM
same,IC (TGI),OVCAR-8; read-out: Log10 TGI,> 100 µM
same,GI50,TK-10; [2],0.0646 µM
same,CC50,TK-10; [3],> 100 µM
same,IC (TGI),TK-10; read-out: Log10 TGI,> 100 µM
